Experiments:
HeLa cells = assay: Cytotoxicity assay; format: cell-based, human; conditions: 10, 1, 0.1 and 0.01 μM; 24 or 48 h; triplicate
CREBBP = format: binding, human; conditions: from ΔTm^obs, compound 100 μM

| Compound | cytotoxicity in HeLa cells (MTT) (HeLa cells) | selectivity for CREBBP over the BET bromodomains (CREBBP) |
| --- | --- | --- |
| CCOc1cc(-c2c(C)noc2C)cc(C(C)O)c1 (racemic) [Compound 4d, (RS)-1-(3-(3,5-Dimethylisoxazol-4-yl)-5-ethoxyphenyl)ethanol] | did not show any cytotoxicity |  |
| Cc1noc(C)c1-c1ccc2c(c1)CN(C)C(=O)N2 [Compound 1, 6-(3,5-dimethylisoxazol-4-yl)-3-methyl-3,4-dihydroquinazolin-2(1H)-one] | significant cytotoxicity |  |
| CCOc1cc(C(=O)O)cc(-c2c(C)noc2C)c1 [Compound 4b, 3-(3,5-Dimethylisoxazol-4-yl)-5-ethoxybenzoic acid] | did not show any cytotoxicity | modest |
